Like-named read-outs stand apart in the source and are kept apart here.
How the values were obtained:
[1] = biological target: T1, CDK1 (cyclin dependent kinase 1) / cyclin B (Homo sapiens, UniProt P06493); assay: CDK1 kinase assay; type: biochemical
T1 construct: purchased New England Biolabs 6020; host or cells: insect cells
Protocol: (§1) The term n.d. means not tested.
Assays to test compound inhibition of other kinases were preformed using methods that measure the amount of phosphorylation of a biotinylated peptide substrate. Biotinylated peptide substrates were selected from the literature as appropriate for the enzyme being evaluated. The general procedure used to assay for kinase activity is as follows: A kinase reaction mix was prepared in 50 mM Tris-HCl pH=8, 10 mM MgCl2, 0.1 mM NaVO4, 1 mM DTT, 5-10 μM ATP, 0.25-1 μM biotinylated peptide substrate, 0.2-0.8 μCuries per well ^33P-γ-ATP [2000-3000 Ci/mmol]. Assay conditions vary slightly for each protein kinase, for example, insulin receptor kinase requires 10 mM MnCl2 for activity and Calmodulin-dependent protein kinase requires calmodulin and 2 mM CaCl2. The reaction mixture was dispensed into the wells of a streptavidin coated Flashplate and 1 μl drug stock in 100% DMSO was added to a 100 μl reaction volume resulting in a final concentration of 1% DMSO in the reaction. Enzyme was diluted in 50 mM Tris-HCl pH=8.0, 0.1% BSA and added to each well. The reaction was incubated for one hour at 30° C. in the presence of compound. After one hour the reaction mix was aspirated from the plate and the plate was washed with PBS containing 100 mM EDTA. The plate was read on a scintillation counter to determine ^33P-γ-ATP incorporated into the immobilized peptide. […] A maximum and minimum signal for the assay was determined on each plate. The IC50 was calculated from the dose response curve of the percent inhibition of the maximum signal in the assay according to the formula [max signal−background/test compound signal−background (100)=% inhibition] by graphing the percent inhibition against the log concentration of test compound. Known inhibitor compounds appropriate for the kinase being assayed were also included on each plate.
VEGF-R (vascular endothelial growth factor receptor-2) is a fusion protein containing a polyhistidine tag at the N-terminus followed by amino acids 786-1343 of the rat VEGF-R2 kinase domain (GenBank Accession #U93306). CDK1 (cyclin dependent kinase 1) is isolated from insect cells expressing both the human CDK1 catalytic subunit and its positive regulatory subunit cyclin B (New England Biolabs, Beverly, Mass., Cat. #6020). CDK4 (cyclin dependent kinase 4) contains amino acids 769 to 921 of the mouse […] protein found in the GST-retinoblastoma protein construct (Santa Cruz Biotechnology, Santa Cruz, Calif.; Cat. #SC-4112). Insulin Receptor Kinase consists of residues 941-1313 of the cytoplasmic domain of the beta-subunit of the human insulin receptor (BIOMOL, Plymouth Meeting, Pa., Cat. #SE-195). Protein Kinase A is the catalytic subunit of cAMP dependent protein kinase-A purified from bovine heart (Upstate Biotech, Lake Placid, N.Y., Cat#14-114). PKC (protein kinase-C) is the gamma or beta isoform of the human protein produced in insect cells (BIOMOL, Plymouth Meeting, Pa., Cat. #SE-143). Casein Kinase 1 is a truncation at amino acid 318 of the C-terminal portion of the rat CK1 delta isoform produced in E.coli (New England Biolabs, Beverly, Mass., Cat. #6030). Casein Kinase 2 includes the alpha and beta subunits of the human CK2 protein produced in E.coli (New England Biolabs, Beverly, Mass., Cat. #6010). Calmodulin Kinase (calmodulin-dependent protein kinase 2) is a truncated version of the alpha subunit of the rat protein produced in insect cells (New England Biolabs, Beverly, Mass., Cat. #6060). Glycogen Synthase Kinase-3 is the beta isoform of the rabbit enzyme produced in E. coli (New England Biolabs, Beverly, Mass., Cat. #6040). MAP Kinase is the rat ERK-2 isoform containing a polyhistidine tag at the N-terminus produced in E. coli. and activated by phosphorylation with MEK1 prior to purification (BIOMOL, Plymouth Meeting, Pa., Cat. #SE-137). EGFR (epidermal growth factor receptor) is purified from human A431 cell membranes (Sigma, St. Louis, Mo., Cat.# E3641). […]

[2] = biological target: T2, VEGF-R (vascular endothelial growth factor receptor-2) (Rattus norvegicus, UniProt O08775); assay: VEGF-R screening assay (33P FlashPlate kinase assay); type: biochemical
T2 construct: polyhistidine (6xHis) (N)
Protocol: A kinase reaction mixture was prepared containing 50 mM Tris-HCl pH=8, 10 mM MgCl2, 0.1 mM NAPO4, 1 mM DTT, 10 μM ATP, 0.025 μM biotinylated peptide substrate and 0.8 μCuries per well ^33P-γ-ATP [2000-3000 Ci/mmol]. 70 μl of the kinase reaction mixture was dispensed into the well of a streptavidin coated FlashPlate™ (Cat. # SMP103, NEN, Boston, Mass.). Then 1 μl of test compound stock in 100% DMSO was added to the wells resulting in a final concentration of 1% DMSO in the reaction with a 100 μl final reaction volume. Next, soluble rat tyrosine kinase containing an N-terminal 6×HIS tag was diluted in 50 mM Tris-HCl pH=8.0, 0.1% BSA at a concentration of 5 ng per microliter and 30 μl (150 ng enzyme per test well) was added to each well to initiate the reaction. The reaction was incubated for one hour at 30° C. At the end of the 1-hour incubation, the reaction was terminated by aspirating the reaction mixture from the plate and washing the wells twice with PBS containing 100 mM EDTA. The PLCI biotinylated peptide substrate becomes immobilized on the Flashplate™ and the incorporation of ^33P-γ-ATP was measured by reading the plate on a scintillation counter. Inhibition of the enzymatic activity of the VEGF-R was measured by observing a reduced amount of ^33P-γ-ATP incorporated into the immobilized peptide.
as §1
Assays to test compound inhibition of other kinases were preformed using methods that measure the amount of phosphorylation of a biotinylated peptide substrate. Biotinylated peptide substrates were selected from the literature as appropriate for the enzyme being evaluated. The general procedure used to assay for kinase activity is as follows: A kinase reaction mix was prepared in 50 mM Tris-HCl pH=8, 10 mM MgCl2, 0.1 mM NaVO4, 1 mM DTT, 5-10 μM ATP, 0.25-1 μM biotinylated peptide substrate, 0.2-0.8 μCuries per well ^33P-γ-ATP [2000-3000 Ci/mmol]. Assay conditions vary slightly for each protein kinase, for example, insulin receptor kinase requires 10 mM MnCl2 for activity and Calmodulin-dependent protein kinase requires calmodulin and 2 mM CaCl2. The reaction mixture was dispensed into the wells of a streptavidin coated Flashplate and 1 μl drug stock in 100% DMSO was added to a 100 μl reaction volume resulting in a final concentration of 1% DMSO in the reaction. Enzyme was diluted in 50 mM Tris-HCl pH=8.0, 0.1% BSA and added to each well. The reaction was incubated for one hour at 30° C. in the presence of compound. After one hour the reaction mix was aspirated from the plate and the plate was washed with PBS containing 100 mM EDTA. The plate was read on a scintillation counter to determine ^33P-γ-ATP incorporated into the immobilized peptide. Test compounds were assayed in duplicate at 8 concentrations [100 tM, 10 μM, 1 μM, 100 nM, 10 nM, 1 nM, 100 μM, 10 μM]. A maximum and minimum signal for the assay was determined on each plate. The IC50 was calculated from the dose response curve of the percent inhibition of the maximum signal in the assay according to the formula [max signal−background/test compound signal−background (100)=% inhibition] by graphing the percent inhibition against the log concentration of test compound. Known inhibitor compounds appropriate for the kinase being assayed were also included on each plate.
VEGF-R (vascular endothelial growth factor receptor-2) is a fusion protein containing a polyhistidine tag at the N-terminus followed by amino acids 786-1343 of the rat VEGF-R2 kinase domain (GenBank Accession #U93306). CDK1 (cyclin dependent kinase 1) is isolated from insect cells expressing both the human CDK1 catalytic subunit and its positive regulatory subunit cyclin B (New England Biolabs, Beverly, Mass., Cat. #6020). CDK4 (cyclin dependent kinase 4) contains amino acids 769 to 921 of the mouse […] protein found in the GST-retinoblastoma protein construct (Santa Cruz Biotechnology, Santa Cruz, Calif.; Cat. #SC-4112). […]

[3] = Tables 1-3, >10 or >100 = no 50% inhibition at highest dose tested, read-out: CDK IC50
[4] = Tables 1-3, >10 or >100 = no 50% inhibition at highest dose tested, read-out: VEGF-R IC50
[5] = Table 4 kinase selectivity, 10 = approximate value, read-out: IC50, Assay 2 CDK1
[6] = Table 4 kinase selectivity, read-out: IC50, Assay 1 VEGF-R

T1 sequence (P06493 whole entry): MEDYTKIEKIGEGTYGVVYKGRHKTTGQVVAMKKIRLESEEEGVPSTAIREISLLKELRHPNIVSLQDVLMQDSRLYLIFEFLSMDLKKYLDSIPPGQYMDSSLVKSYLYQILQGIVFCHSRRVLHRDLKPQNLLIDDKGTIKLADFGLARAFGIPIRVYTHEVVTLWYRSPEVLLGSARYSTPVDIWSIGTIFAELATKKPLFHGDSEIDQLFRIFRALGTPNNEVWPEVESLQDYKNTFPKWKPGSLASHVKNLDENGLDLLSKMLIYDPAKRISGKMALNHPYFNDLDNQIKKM
T1 sequence (P14635 whole entry partner): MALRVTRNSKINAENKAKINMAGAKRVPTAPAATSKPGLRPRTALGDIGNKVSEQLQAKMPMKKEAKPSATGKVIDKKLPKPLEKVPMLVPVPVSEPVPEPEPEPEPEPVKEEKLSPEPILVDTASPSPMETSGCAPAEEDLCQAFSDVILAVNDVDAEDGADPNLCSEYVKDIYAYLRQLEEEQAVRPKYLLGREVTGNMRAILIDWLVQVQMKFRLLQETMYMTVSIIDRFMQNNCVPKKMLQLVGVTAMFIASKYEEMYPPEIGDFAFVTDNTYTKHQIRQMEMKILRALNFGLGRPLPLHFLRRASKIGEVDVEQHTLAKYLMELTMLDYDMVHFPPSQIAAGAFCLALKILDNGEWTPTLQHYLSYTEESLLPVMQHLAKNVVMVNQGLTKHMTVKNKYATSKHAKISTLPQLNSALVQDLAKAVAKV
T2 sequence (O08775 786-1343): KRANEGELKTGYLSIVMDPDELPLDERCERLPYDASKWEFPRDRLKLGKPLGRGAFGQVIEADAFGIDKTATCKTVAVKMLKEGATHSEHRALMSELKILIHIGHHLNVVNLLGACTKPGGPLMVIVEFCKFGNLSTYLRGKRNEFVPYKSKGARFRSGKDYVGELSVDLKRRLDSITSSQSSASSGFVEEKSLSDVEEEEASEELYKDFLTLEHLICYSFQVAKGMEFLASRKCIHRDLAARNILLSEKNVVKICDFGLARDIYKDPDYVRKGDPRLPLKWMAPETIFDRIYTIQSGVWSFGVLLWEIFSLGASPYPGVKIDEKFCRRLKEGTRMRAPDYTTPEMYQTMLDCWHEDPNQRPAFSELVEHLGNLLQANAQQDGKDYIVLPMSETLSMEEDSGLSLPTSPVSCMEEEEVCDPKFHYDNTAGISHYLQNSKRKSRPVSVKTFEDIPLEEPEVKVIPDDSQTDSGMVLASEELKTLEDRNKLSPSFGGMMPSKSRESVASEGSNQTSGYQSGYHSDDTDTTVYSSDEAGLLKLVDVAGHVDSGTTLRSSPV

Structure (SMILES) | IC50 [1, 3] | IC50 [2, 4] | IC50 [1, 5] | IC50 [2, 6]
CCOC(=O)c1cncc(-c2cncc(Nc3cccc(Cl)c3)n2)c1 [Cmd 1] | > 10 µM | – | – | –
Nc1cncc(-c2cncc(Nc3cccc(Cl)c3)n2)c1 [Cmd 5] | 11.7 µM | 1.16 µM | – | –
COCCNC(=O)c1cncc(-c2cncc(Nc3cccc(Cl)c3)n2)c1 [Cmd 36] | > 100 µM | ~10 µM | – | –
CN(C)CCCNC(=O)c1cncc(-c2cncc(Nc3cccc(Cl)c3)n2)c1 [Cmd 37] | > 100 µM | 5.5 µM | – | –
CN(C)CCNC(=O)c1cncc(-c2cncc(Nc3cccc(Cl)c3)n2)c1 [Cmd 38] | 3.69 µM | 4.3 µM | – | –
CCOCCCNC(=O)c1cncc(-c2cncc(Nc3cccc(Cl)c3)n2)c1 [Cmd 40] | > 100 µM | > 100 µM | – | –
COCC(=O)Nc1cncc(-c2cncc(Nc3cccc(Cl)c3)n2)c1 [Cmd 41] | > 100 µM | 0.36 µM | – | –
CN(C)c1ccc(C(=O)Nc2cncc(-c3cncc(Nc4cccc(Cl)c4)n3)c2)cc1 [Cmd 42] | > 100 µM | > 100 µM | – | –
O=C(Nc1cncc(-c2cncc(Nc3cccc(Cl)c3)n2)c1)c1cccnc1 [Cmd 43] | > 100 µM | 1.12 µM | – | –
Clc1cccc(Nc2cncc(-c3cncc(NCCCCc4ccncc4)c3)n2)c1 [Cmd 70] | – | 0.295 µM | – | –
O=C(Nc1cncc(-c2cncc(Nc3cccc(Cl)c3)n2)c1)N1CCCC1 [Cmd 74] | > 10 µM | 0.578 µM | – | –
CCN(CC)C(=O)CNc1cncc(-c2cncc(Nc3cccc(Cl)c3)n2)c1 [Cmd 81] | > 10 µM | 1.1 µM | – | –
Clc1cccc(Nc2cncc(-c3cncc(NCc4ccccc4)c3)n2)c1 [Cmd 82] | > 10 µM | 4.3 µM | – | –
Clc1cccc(Nc2cncc(-c3cncc(NCCOc4ccccc4)c3)n2)c1 [Cmd 83] | > 10 µM | > 10 µM | – | –
Clc1cccc(Nc2cncc(-c3cncc(NCCCN4CCN(c5cccc(Cl)c5)CC4)c3)n2)c1 [Cmd 86] | > 10 µM | > 10 µM | – | –
Clc1ccc(Nc2cncc(-c3cncc(NCCCc4ccncc4)c3)n2)cc1 [Cmd 87] | > 10 µM | 1 µM | – | –
COc1ccc(Nc2cncc(-c3cncc(NCCCc4ccncc4)c3)n2)cc1 [Cmd 88] | > 10 µM | 0.154 µM | – | –
Clc1ccc(Nc2cncc(-c3cncc(NCCCc4ccncc4)c3)n2)cc1Cl [Cmd 89] | > 10 µM | 0.268 µM | – | –
COCCOCC(=O)Nc1cncc(-c2cncc(Nc3cccc(Cl)c3)n2)c1 [Cmd 98] | > 10 µM | 0.99 µM | – | –
O=C(COc1ccccc1)Nc1cncc(-c2cncc(Nc3cccc(Cl)c3)n2)c1 [Cmd 99] | > 10 µM | > 10 µM | – | –

Next, values leading:

IC50 [1, 3] | IC50 [2, 4] | IC50 [1, 5] | IC50 [2, 6] | Structure (SMILES)
~10 µM | 0.15 µM | – | – | OCCNc1cncc(-c2cncc(Nc3cccc(Cl)c3)n2)c1 [Cmd 31]
> 100 µM | 0.18 µM | – | – | Clc1cccc(Nc2cncc(-c3cncc(NCCCN4CCOCC4)c3)n2)c1 [Cmd 34]
~100 µM | 0.17 µM | – | – | OCCCNc1cncc(-c2cncc(Nc3cccc(F)c3)n2)c1 [Cmd 52]
81.4 µM | 0.81 µM | – | – | COc1cccc(Nc2cncc(-c3cncc(NCCCO)c3)n2)c1 [Cmd 57]
34.4 µM | 1.05 µM | – | – | OCCCNc1cncc(-c2cncc(NCc3ccccc3)n2)c1 [Cmd 62]
> 10 µM | 0.364 µM | – | – | Clc1cccc(Nc2cncc(-c3cncc(NCCCN4CCNCC4)c3)n2)c1 [Cmd 69]
> 10 µM | 0.282 µM | – | – | OCCOCCOCCNc1cncc(-c2cncc(Nc3cccc(Cl)c3)n2)c1 [Cmd 78]
> 10 µM | 2.28 µM | – | – | Clc1cccc(Nc2cncc(-c3cncc(NCCCc4ccccc4)c3)n2)c1 [Cmd 80]
2.03 µM | 0.125 µM | 2.03 µM | 0.125 µM | CCOC(=O)CCCNc1cncc(-c2cncc(Nc3cccc(Cl)c3)n2)c1 [Cmd 84]
> 10 µM | 0.085 µM | > 10 µM | 0.085 µM | COCCOCCNc1cncc(-c2cncc(Nc3cccc(Cl)c3)n2)c1 [Cmd 85]
> 10 µM | > 10 µM | – | – | OCCCNc1cncc(-c2cncc(Oc3cccc(Cl)c3)n2)c1 [Cmd 96]

From patent US6710048B2, “Pyrazine derivatives as modulators of tyrosine kinases” (Ortho-McNeil Pharmaceutical, Inc., priority 2000, dated 2004)
